How the values were obtained:
[1] = AUCinf in rat at 10 mg/kg, po; assay type: ADME, organism-based; design: route oral, time infinity, dose 10 mg/kg; conditions: in vivo
[2] = Clearance in rat at 2 mg/kg; assay type: ADME, organism-based; conditions: in vivo
[3] = Metabolic stability in human liver S9 fraction assessed as compound remaining measured after 1 hr; assay type: ADME, subcellular; conditions: read-out: Stability
[4] = Metabolic stability in rat liver S9 fraction assessed as compound remaining measured after 1 hr; assay type: ADME, subcellular; conditions: read-out: Stability

CC(C)(C)Nc1ncc(C(N)=O)c(N[C@@H]2CCC[C@H](O)C2)n1
AUC(0-inf) [1]: 10.8 µM·h | clearance [2]: 78 mL/min/kg | remaining at 1 h [3]: 93% | remaining at 1 h [4]: 98%

CO[C@H]1CC[C@H](Nc2ncc(C(N)=O)c(N[C@@H]3CCCC(F)(F)C3)n2)CC1 (mixture of isomers)
remaining at 1 h [3]: 61% | remaining at 1 h [4]: 1%

NC(=O)c1cnc(NC23CC(C2)C3)nc1N[C@@H]1CCC[C@H](O)C1
AUC(0-inf) [1]: 2.25 µM·h | remaining at 1 h [3]: 96% | remaining at 1 h [4]: 75%

CO[C@H]1CCC[C@@H](Nc2nc(N[C@H]3CC[C@H](OC)CC3)ncc2C(N)=O)C1
remaining at 1 h [3]: 91% | remaining at 1 h [4]: 47%

NC(=O)c1cnc(NC2CCCCC2)nc1N[C@@H]1CCC[C@H](O)C1
remaining at 1 h [3]: 77% | remaining at 1 h [4]: 1%

C[C@@H]1CC[C@@H](Nc2nc(NC(C)(C)C)ncc2C(N)=O)C[C@H]1O [CC-90001]
AUC(0-inf) [1]: 35.5 µM·h | clearance [2]: 11 mL/min/kg

— ChEMBL document CHEMBL4840378 (J Med Chem, 2021)
